Results as given in patent US20120282358A1, “ORAL ADMINISTRATION COMPOSITION” (UNITIKA LTD., priority 2007, published 2012).

Assays:
[1] = tested on: Female mice of KK-Ay/TacJc1 line (diabetes mellitus type II model animal); assay: Test Example 1-2: KK-Ay mice on high fat feed, 4 weeks; body weight, triglyceride, abdominal white fat tissue weight; type: in vivo; settings: 29th day; in comparison with Comparative Example 1-2 and Comparative Example 1-4; FIG. 9
Description: Female mice of KK-Ay/TacJc1 line (6 weeks of age, manufactured by CLEA Japan Inc.), established as a diabetes mellitus type II model animal, were divided into groups of 6 animals per group, and β-cryptoxanthin (95% in purity, manufactured by SHIKOKU YASHIMA PURE CHEMICALS CO., LTD.) and glucosylceramide (3% in purity, konnyaku ceramide manufactured by UNITIKA, LTD.) were mixed with a high fat feed, at the ratios of 0.2% and 4% respectively, and subjected to free ingestion together with water. As the control group, tests were carried out by providing the mice with a high fat feed (CLEA Rodent Diet Quick Fat, manufactured by CLEA Japan Inc) to which nothing was added (Comparative Example 1-2), the high fat feed to which 0.2% of β-cryptoxanthin alone was added (Comparative Example 1-3) and the high fat feed to which 4% of glucosylceramide alone was added (Comparative Example 1-4).
The administration was carried out for 4 weeks, and body weight and triglyceride content were measured before the administration and on the 7th, 14th, 21st and 28th days after the administration. In addition, the mice were sacrificed on the 29th day after the commencement of administration, and the visceral fats, namely abdominal white fat tissues, were collected and their weights were compared. The results are shown in FIG. 7, FIG. 8 and FIG. 9, respectively.

[2] = tested on: Female mice of KK-Ay/TacJc1 line (diabetes mellitus type II model animal); assay: Test Examples 2-1, 2-2, 2-3: KK-Ay mice on high fat feed, 4 weeks; body weight, blood triglyceride, visceral white fat tissue mass; type: in vivo; settings: for mass of visceral fat (abdominal white fat tissue): 29th day after commencement of administration; for mass of visceral fat (abdominal white fat tissue) / triglyceride content in blood: in comparison with control group; for change in body weight / triglyceride content in blood: mixed in high fat feed, 4 weeks; for change in body weight: measured on 7th, 14th, 21st, 28th days, in comparison with control group (high fat feed alone); for triglyceride content in blood: Triglyceride E-test Wako
Experimental: Female mice of KK-Ay/TacJc1 line (6 weeks of age: manufactured by CLEA Japan Inc.), established as a diabetes mellitus type II model animal, were divided into groups of 6 animals per group, and the composition obtained in Example 1 was mixed with a high fat feed at a ratio of 4% and subjected to free ingestion together with water. The high fat feed alone was allowed to be ingested by the control group.
The administration was carried out for 4 weeks, and the body weight was measured before the administration and on the 7th, 14th, 21st and 28th days after the administration.
Simultaneously with the measurement of body weights of the mice used in Test Example 1-1, blood collection was carried out and the triglyceride content in blood was measured using Triglyceride E-test Wako (manufactured by Wako Pure Chemical Industries, Ltd.) The result is shown in FIG. 11.
The mice used in Test Example 2-1 were sacrificed on the 29th day after commencement of the administration, and collection of the visceral fat, namely white fat tissue, was carried out to compare their mass.

[3] = Applicant's own test of β-cryptoxanthin alone for obesity prevention / fat reduction; settings: no details given

Row | Compound | abdominal fat tissue weight [1] | mass of visceral fat (abdominal white fat tissue) [2] | change in body weight [2] | triglyceride content in blood [2] | action by individual use (obesity prevention / fat reduction) [3]
1 | CC1=C(/C=C/C(C)=C/C=C/C(C)=C/C=C/C=C(C)/C=C/C=C(C)/C=C/C2=C(C)C[C@@H](O)CC2(C)C)C(C)(C)CCC1 [Comparative Example 1-3, β-cryptoxanthin] | significantly reduced |  |  |  | 
2 | CC1=C(/C=C/C(C)=C/C=C/C(C)=C/C=C/C=C(C)/C=C/C=C(C)/C=C/C2=C(C)C[C@@H](O)CC2(C)C)C(C)(C)CCC1 [Comparative Example 3, β-cryptoxanthin] |  | significantly reduced | significantly reduced on the 28th day | significantly reduced on the 21st and 28th days | 
3 | CC1=C(/C=C/C(C)=C/C=C/C(C)=C/C=C/C=C(C)/C=C/C=C(C)/C=C/C2=C(C)C[C@@H](O)CC2(C)C)C(C)(C)CCC1 [β-cryptoxanthin] |  |  |  |  | weak
4 | a-glycosylhesperidin [Comparative Example 4] |  | reduction of the visceral fat was not found | significant difference was not found | significant difference was not found | 
